Data: patent US10656159B2, “Immunoassays of s-adenosylmethionine and methylation index in personalized medicine and health evaluation” (HUNAN SKYWORLD BIOTECHNOLOGIES CO, priority 2013, dated 2020)
Where “and” joins values, the source holds several entries; their conditions need not be identical. Equal entries are not always repeated. Entries after “also recorded” stand apart in the source; their conditions may differ.

Columns and labels:
[1] = Dialysis of plasma: free and non-free SAM and SAH; type: in vitro ADME, human; conditions: for Amount left after dialysis: 37° C., 24 hour; for Non-free form left within the dialysis bag: dialysis 15° C., 24 hours, 20 mM phosphate buffer pH 7.4, bag MW 14,000
Method: To distinguish whether there are conjugated form of SAM and SAH in human plasma, we used dialysis bags to dialyze plasma samples at different temperature for 24 hours with at least two changes of dialyzing buffer (20 mM PB, pH7.4), then measured the SAM and SAH levels before and after dialysis.
Notice that for those SAH data which were greater than or equal to 1000 nM, only 1000 nM was used in the figure. Therefore, it is obvious that the immunoassays used in this invention can bind free SAM and SAH from human plasma. The differences of SAM or SAH as measured before and after dialysis (20 mM phosphate buffer, pH 7.4) for each sample represented the free SAM or SAH molecules that escaped from the dialysis bag (MW 14,000, Biosharp, USA) into the dialysis buffer, therefore they could not be detected from the sample collected from dialysis bag.
FIGS. 20A and 20B also show the percentages of SAM and SAH that were left within the dialysis bag after dialysis at 15° C. for 24 hours, which represented the amount of non-free SAM and SAH respectively.

[2] = Thermal stability of SAM and SAH in human plasma; type: in vitro ADME
Method: The stability of SAM and SAH at different temperatures, as well as their stability in acid and base environment were tested. The 310 human plasma samples were placed at room temperature for 2 hours. […] The increased SAH was due to de-methylation of SAM in ex vivi situation within a few hours of blood withdrawal.
Results from stability study for different temperature conditions, i.e. 4° C., 15° C. (room temperature), 37° C. and 56° C., were obtained mainly on SAM and partially on SAH measurements. Plasma from 4 individual samples S3, S4, S5 and S6 were used in 4° C., 15° C. and 37° C. experiments.
However, when samples were placed at room temperature (˜15° C.) and 37° C., SAM was degraded rapidly especially at 37° C., SAM degradation rate reached a maximum at about 4-6 hours under 37° C. […] At about 6 hours after blood withdrawal, SAM level was reduced whereas SAH level was increased. The values of SAH were recorded as >1000 nM from 6 hours to 3 days, thus SAH leaks were not shown. The level of SAH was maintained at a high level for about 3 days before it started to drop. SAM level went down continuously. […] It cannot be ruled out that inhibition of SAH converting to other metabolites or degradation also existed causing it to stay high for quite some time. It meant to show the dynamics of SAM and SAH for this particular sample. Difference among samples exists. Samples S1, S2, S3 and S4 were used in 56° C. experiments. The results are shown in FIG. 19F-G. SAM was quickly undetectable in 10 minutes at 56° C., whereas SAH was dramatically degraded in 10 minutes and fully undetectable after about 4 hours at 56° C.

[3] = Stability of SAM and SAH in plasma at different pH; type: in vitro ADME, human; conditions: for Level at 1 day time point: maximum detection limit 1000 nM; for Effect of pH on degradation: plasma, 15° C., pH 5.5-6.0, 7.0-7.5, 8.0-8.5
Method: The stability of SAM and SAH was also tested in acidic and basic conditions at 15° C. Normal mixed plasma sample (S8) (with pH 7.84), samples S1, S2, S3, S4 (pH 7.0-7.5) were used in the experiments. 10 μl 5M HCl was added to 1260 μl plasma to adjust its pH to 5.5-6.0. In another set of samples, 2 μl 5M NaOH was added to 1260 μl plasma to adjust its pH to 8.0-8.5. Before using these acidic or basic samples to conduct the immunoassay, 1.1 μl 5M NaOH was added to 180 μl acidic samples; 0.376 μl 5M HCl was added to 180 μl basic samples to make them neutral. Meanwhile, standards were also added the same amount of acid and base as the samples.
This observation was consistent with a prior publication regarding pH stability of SAM (Parks, L W, et al. jbc.org Aug. 23, 1957). […] However basic environment has a stronger impact than acidic environment. The SAH data at 1 day time point, the SAH levels for pH 7.0-7.5 and pH 5.5-6.0 curves were measured to be greater than 1000 nM. The experiment has maximum detection limit as 1000 nM, only 1000 nM points were plotted, therefore the spikes at 1 day time point could not been see for pH 7.0-7.5 and pH 5.5-6.0 curves. This figure is meant to show the dynamics of SAH level for this particular sample. Difference among samples exists.

[4] = cELISA sensitivity / SAH standard curve; type: binding; conditions: HRP-anti-301-1 1:1000, 0.5 μg/ml BSA-SAH coat
Method: The cELISA result from Table 1C with obtained from 0.5 μg/ml BSA-SAH coated micro-titer plate, HRP-anti-301-1 at dilution of 1:1000 in PBS incubation system. Different amounts of coating antigen, antibody, and incubating buffer will give slightly different minimum detection limits.

[5] = test system: nucleolar 2-O-methyltransferase; conditions: cited from earlier work
[6] = oral, alcoholic liver cirrhosis, versus placebo; cited from earlier work
[7] = 310 human plasma samples, room temperature 2 hours versus 4° C.

Q: With `Nc1ncnc2c1ncn2[C@@H]1O[C@H](CSCC[C@H](N)C(=O)O)[C@@H](O)[C@H]1O` [SAH, S-Adenosylhomocysteine] as the molecule, how does the “Amount left after dialysis” value [1] read?
A: trivial or no SAM and SAH left

Q: What about the “Non-free form left within the dialysis bag” value [1] of the same molecule?
A: around 30%

Q: What about the Increase of level [2, 7] of the same molecule?
A: 21.05%±83.31%

Q: And the “Time level was maintained at a high level before it started to drop” value ([2]; plasma, 15° C.)?
A: about 3 days

Q: And the “Time to fully undetectable” value ([2]; plasma, 56° C.)?
A: about 4 hours

Q: And the “Level at 1 day time point” value ([3]; plasma pH 5.5-6.0, 15° C.)?
A: greater than 1000 nM

Q: And the “Level at 1 day time point” value ([3]; plasma pH 7.0-7.5, 15° C.)?
A: greater than 1000 nM

Q: What about the “Effect of pH on degradation” value [3] of the same molecule?
A: both acidic and basic environment speeded up plasma SAH degradation; also recorded: Both acid and base increased the speed SAH was degraded

Q: And the OD450 ([4]; SAH 3.906 nM)?
A: 0.7722 and 0.9144 and 0.7786

Q: What about the “OD450 Mean” value ([4]; SAH 3.906 nM) of the same molecule?
A: 0.8217

Q: And the OD450 ([4]; SAH 7.8125 nM)?
A: 0.7602 and 0.8113 and 0.7708

Q: And the “OD450 Mean” value ([4]; SAH 7.8125 nM)?
A: 0.7808

Q: What about the OD450 ([4]; SAH 15.625 nM) of the same molecule?
A: 0.8045 and 0.8273 and 0.7975

Q: What about the “OD450 Mean” value ([4]; SAH 15.625 nM) of the same molecule?
A: 0.8098

Q: And the OD450 ([4]; SAH 31.25 nM)?
A: 0.7285 and 0.8199 and 0.7545

Q: What about the “OD450 Mean” value ([4]; SAH 31.25 nM) of the same molecule?
A: 0.7676

Q: What about the OD450 ([4]; SAH 62.5 nM) of the same molecule?
A: 0.6055 and 0.7115 and 0.6444

Q: What about the “OD450 Mean” value ([4]; SAH 62.5 nM) of the same molecule?
A: 0.6538

Q: And the OD450 ([4]; SAH 125 nM)?
A: 0.5421 and 0.6358 and 0.5372

Q: And the “OD450 Mean” value ([4]; SAH 125 nM)?
A: 0.5717

Q: And the OD450 ([4]; SAH 250 nM)?
A: 0.4116 and 0.4426 and 0.442

Q: What about the “OD450 Mean” value ([4]; SAH 250 nM) of the same molecule?
A: 0.4321

Q: For `C[S+](CC[C@H](N)C(=O)[O-])C[C@H]1O[C@@H](n2cnc3c(N)ncnc32)[C@H](O)[C@@H]1O` (stereo partly drawn) [(S, S)-SAM-e], which “Binding tightness relative to (R, S)-SAM-e” value [5] is on record?
A: 10 fold

Q: With `C[S+](CC[C@H](N)C(=O)O)C[C@H]1O[C@@H](n2cnc3c(N)ncnc32)[C@H](O)[C@@H]1O` (some centres unmarked) [SAM, S-Adenosylmethionine] as the molecule, how does the “Amount left after dialysis” value [1] read?
A: trivial or no SAM and SAH left

Q: What about the “Non-free form left within the dialysis bag” value [1] of the same molecule?
A: 11-25%

Q: And the Reduction of level [2, 7]?
A: 33.81%±19.43%

Q: What about the Stability ([2]; plasma, 37° C.) of the same molecule?
A: reduced quickly in all samples

Q: And the “Time at which degradation rate reached a maximum” value ([2]; plasma, 37° C.)?
A: 4 to 6 h

Q: And the Stability ([2]; plasma, 56° C.)?
A: reduced even faster than at 37 °C

Q: And the Time to undetectable ([2]; plasma, 56° C.)?
A: 10 min

Q: And the “Overall mortality and/or progression to liver transplant” value [6]?
A: 12%

Q: And the “Effect of pH on degradation” value [3]?
A: degradation rate increased with pH values; also recorded: Low pH (acidic environment) helped prevent SAM from quick degradation
